Experiments:
[1] = system: Acvr1[R206H]COIN/+; Gt(ROSA26)SorCreERt2/+ mice; test: Example 2: ectopic bone formation in a mouse model of FOP after tamoxifen, in vivo μCT (ACVR1 kinase inhibitor); conditions: for mice showing ectopic bone formation / size of ectopic bone lesions: 3 mg/kg twice daily for 4 weeks; for mice showing ectopic bone formation: 4 weeks post initiation of tamoxifen, μCT; for size of ectopic bone lesions: versus vehicle control group
From the text: (§1) ACVR1 and/or ACVR2 antagonists and variants or fragments thereof can also be screened for activity in an in vivo assay. For example, ACVR1 or ACVR2 antagonists or variants thereof can be screened for their ability to treat FOP in a mouse model of FOP (e.g., ability to decrease ectopic bone formation). Transgenic knock-in mice have been developed that carry a conditional allele encoding Acvr1[R206H]. These Acvr1^[R206H]COIN/+ mice are described in U.S. Ser. No. 14/207,320 and PCT/US2014/026582, which are incorporated by reference herein in its entirety. This allele expresses the R206H variant only after activation by Cre recombinase. This allows Cre-dependent activation of Acvr1[R206H] expression at specific tissues and at specific time by using different types of Cre driver lines. In this manner the resulting mice also bypass the perinatal lethality that has been observed with a non-regulated knock-in allele of Acvr1[R206H]. Activation of Acvr1[R206H] expression in young or in adult mice results in ectopic bone formation. […] Tamoxifen activates expression of Cre which then acts upon the Acvr1^[R206H]COIN/+ to convert it to Acvr1^[R206H]/+, thereby converting the genotype of the mice to mirror the genotype of the FOP patients that are ACVR1[R206H]. The Acvr1^[R206H] allele expresses Acvr1[R206H], and that is adequate to drive the development of FOP in the Acvr1^[R206H]/+; Gt(ROSA26)Sor^CreERt2/+ mice. This bypasses the embryonic lethality experienced with conventional Acvr1^[R206H] knock-in mice, Acvr1^tm1Emsh (http://www.informatics.jax.org/allele/key/828153). After tamoxifen treatment, the ACVR1, ACVR2A and/or ACVR2B antagonists or a control can be administered to the Acvr1^[R206H]COIN/+; Gt(ROSA26)Sor^CreERt2/+ mice and the animals monitored for ectopic bone formation. See Chakkalakal S A, et al. (20120 An Acvr1 R206H knock-in mouse has fibrodysplasia ossificans progressiva. J Bone Miner Res. 27(8):1746-56. This assay is described in detail in the Examples below.
16 Acvr1^[R206H]COIN/+; Gt(ROSA26)Sor^CreERt2/+ mice were given tamoxifen at 1 mg/mouse dose i.p. for eight days. Eight mice were treated with 3 mg/kg of the ACVR1 kinase inhibitor LDN-212854 (Mohedas et al. (2013) ACS Chem. Biol. 8:1291-1302) twice daily for 4 weeks. Eight mice were treated with vehicle control twice daily for 4 weeks. Mice were monitored using in vivo μCT at baseline, 2 and 4 weeks post initiation of tamoxifen administration.

[2] = system: Acvr1[R206H]COIN/+; Gt(ROSA26)SorCreERt2/+ mice; test: Example 3: ectopic bone formation in a mouse model of FOP after tamoxifen, in vivo μCT (Activin A antibody, ACVR2a-Fc)
From the text: ACVR1 and/or ACVR2 antagonists and variants or fragments thereof can also be screened for activity in an in vivo assay. For example, ACVR1 or ACVR2 antagonists or variants thereof can be screened for their ability to treat FOP in a mouse model of FOP (e.g., ability to decrease ectopic bone formation). Transgenic knock-in mice have been developed that carry a conditional allele encoding Acvr1[R206H]. These Acvr1^[R206H]COIN/+ mice are described in U.S. Ser. No. 14/207,320 and PCT/US2014/026582, which are incorporated by reference herein in its entirety. This allele expresses the R206H variant only after activation by Cre recombinase. This allows Cre-dependent activation of Acvr1[R206H] expression at specific tissues and at specific time by using different types of Cre driver lines. […] After tamoxifen treatment, the ACVR1, ACVR2A and/or ACVR2B antagonists or a control can be administered to the Acvr1^[R206H]COIN/+; Gt(ROSA26)Sor^CreERt2/+ mice and the animals monitored for ectopic bone formation. […]
23 Acvr1^[R206H]COIN/+; Gt(ROSA26)^SorCreERt2/+ mice were treated with tamoxifen at 1 mg/mouse dose i.p. for eight days. […] Mice were monitored using in vivo micro computer tomography (μCT) at baseline, 2 and 3 weeks post initiation of tamoxifen administration. […]

[3] = system: Acvr1[R206H]COIN/+; Gt(ROSA26)SorCreERt2/+ mice; test: Example 4: ectopic bone formation in a mouse model of FOP after tamoxifen, in vivo μCT (Activin A antibody, Acvr2a/Acvr2b antibody); conditions: for protection from / inhibition of ectopic bone formation after tamoxifen treatment: mouse, in vivo
From the text: as §1, with “See Chakkalakal S A, et al. (20120 An Acvr1 R206H knock-in mouse has fibrodysplasia ossificans progressiva. J Bone Miner Res. 27(8):1746-56. This assay is described in detail in the Examples below.” left out
26 Acvr1[R206H]COIN/+; Gt(ROSA26)SorCreERt2/+ mice were given with tamoxifen at a 40 mg/kg dose i.p. for eight days. […] Mice were monitored using in vivo μCT at baseline, 2, 3 and 4 weeks post initiation of tamoxifen administration. […]

[4] = system: Acvr1[R206H]COIN/+; Gt(ROSA26)SorCreERt2/+ mice; test: Example 5: ectopic bone formation in a mouse model of FOP after tamoxifen, in vivo μCT, dose comparison of Activin A antibody; conditions: for mice that developed ectopic bone: nine mice, after 4 weeks, μCT; for average total volume of ectopic bone: at 6.5 weeks, calculated from μCT images
From the text: as §1
35 Acvr1[R206H]COIN/+; Gt(ROSA26)SorCreERt2/+ mice were given with tamoxifen at 40 mg/kg i.p. for eight days. Eight mice were treated with 25 mg/kg isotype control antibody (REGN1945), nine mice were treated with 25 mg/kg of Activin A antibody (H4H10446P) (REGN2477), nine mice were treated with 10 mg/kg of Activin A antibody (REGN2477) and nine mice were treated with 1 mg/kg of Activin A antibody (REGN2477) weekly for 6 weeks. Mice were monitored using in vivo μCT at baseline, 2, 3, 4 and 6.5 weeks post initiation of tamoxifen administration. The volume of ectopic bone in each mouse was calculated from μCT images. […] At 6.5 weeks the average total volume of ectopic bone in the isotype treated group was 65.4 mm3 compared to 1.87 mm^3 in the 25 mg/kg, 0.3 mm^3 in the 10 mg/kg and 7.3 mm^3 in the 1 mg/kg Activin antibody treated groups.

[5] = system: Activin A mediated signaling through ACVR2A and/or ACVR2B; conditions: as described for the antibody in US2015/0037339 or U.S. Pat. No. 8,309,082; cited from earlier work
[6] = target: T1, Activin A binding to ACVR2A or ACVR2B (Homo sapiens, UniProt P08476); conditions: as described for the antibody in US2015/0037339 or U.S. Pat. No. 8,309,082; cited from earlier work
T1 sequence (P08476 311-426): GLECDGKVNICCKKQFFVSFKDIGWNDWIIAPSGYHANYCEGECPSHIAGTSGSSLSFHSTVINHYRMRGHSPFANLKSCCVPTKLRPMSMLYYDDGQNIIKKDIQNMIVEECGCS

Q: What does the source list for `c1cc(-c2cnn3cc(-c4ccc(N5CCNCC5)cc4)cnc23)c2cccnc2c1` [LDN-212854]?
A: mice showing ectopic bone formation [1]: 3 out of 8; mice showing ectopic bone formation ([1]; listed as LDN212854): No ectopic bone nodules could be detected in mice numbered 10, 11, 14, 15 or 16; size of ectopic bone lesions [1]: small compared to the vehicle control group; size of ectopic bone lesions ([1]; listed as LDN212854): Small ectopic bone nodules have formed in mice numbered 9, 12 and 13; protection from ectopic bone formation after tamoxifen treatment ([1]; LDN-212854 treatment): protected from ectopic bone formation

Q: For “H4H10446P: Antibody against Activin A designated H4H10446P in US2015037339; heavy and light chain variable regions present SEQ ID NOs:1 and 5”, which “mice showing development of ectopic bone” value ([2]; 25 mg/kg twice weekly, eight mice, 3 weeks post initiation of tamoxifen, μCT) is on record?
A: The value was “none”.

Q: And the “inhibition of formation of ectopic bone nodules (FIG. 3)” value ([2]; compared with isotype control antibody and ACVR2A-Fc)?
A: Its value is “inhibited formation of ectopic bone nodules most effectively”.

Q: What about the “mice that developed ectopic bone” value ([3]; 10 mg/kg twice weekly, nine mice per group, 4 weeks post initiation of tamoxifen, μCT) of the same compound?
A: The value was “one”.

Q: What about the “protection from / inhibition of ectopic bone formation after tamoxifen treatment” value ([3]; listed as Activin A) of the same compound?
A: The value was “protected from ectopic bone formation”.

Q: What about the “protection from / inhibition of ectopic bone formation after tamoxifen treatment” value ([3]; listed as antibody against Activin A) of the same compound?
A: Its value is “inhibited formation of ectopic bone nodules”.

Q: And the “mice that developed ectopic bone” value ([4]; 1 mg/kg weekly)?
A: Its value is 2 mice.

Q: What about the “average total volume of ectopic bone” value ([4]; 1 mg/kg weekly) of the same compound?
A: The value was 7.3 mm^3.

Q: What about the “mice that developed ectopic bone” value ([4]; 10 mg/kg weekly) of the same compound?
A: Its value is 2 mice.

Q: And the “average total volume of ectopic bone” value ([4]; 10 mg/kg weekly)?
A: Its value is 0.3 mm^3.

Q: And the “mice that developed ectopic bone” value ([4]; 25 mg/kg weekly)?
A: The value was 2 mice.

Q: And the “average total volume of ectopic bone” value ([4]; 25 mg/kg weekly)?
A: The value was 1.87 mm^3.

Q: What about the “effectiveness of varying doses against ectopic bone formation (FIG. 5)” value ([4]; doses 1, 10 and 25 mg/kg versus isotype control antibody) of the same compound?
A: Its value is “Dosages between 1 mg/kg and 25 mg/kg were shown to be effective with 10 mg/kg being the most effective dose tested”.

Q: What about the “protection from ectopic bone formation after tamoxifen treatment” value ([4]; mouse, in vivo) of the same compound?
A: Its value is “protected from ectopic bone formation”.

Q: And the “inhibition of Activin A signal transduction through ACVR2A and/or ACVR2B” value [5]?
A: The value was “inhibits Activin A mediated signaling through ACVR2A and/or ACVR2B”.

Q: What about the “inhibition of Activin A binding to ACVR2A and/or ACVR2B” value [6] of the same compound?
A: Its value is “does not inhibit strongly, if at all”.
